Laboratory results from PMC11001641, “Iron–sulfur cluster assembly scaffold protein IscU is required for activation of ferric uptake regulator (Fur) in Escherichiacoli” (The Journal of Biological Chemistry, 2024).

What was measured:
E. coli FhuF = target: T1, E. coli FhuF (Escherichia coli, UniProt P39405); test: UV-Vis absorption of purified protein; format: binding; details: pH 8.0; 500 mM NaCl; protein from wild-type E. coli grown in M9 with 2 uM iron; bound during expression
T1 construct: his-tagged, expressed from pBAD in E. coli MC4100

E. coli ferredoxin (Fdx) = target: T2, E. coli ferredoxin (Fdx) (Escherichia coli, UniProt P0A9R4); test: UV-Vis absorption of purified protein; format: binding; details: pH 8.0; 500 mM NaCl; protein from wild-type E. coli grown in M9 with 2 uM iron; bound during expression
T2 construct: his-tagged, expressed from pBAD in E. coli MC4100; isc operon ferredoxin
T2 sequence (P0A9R4 2-111): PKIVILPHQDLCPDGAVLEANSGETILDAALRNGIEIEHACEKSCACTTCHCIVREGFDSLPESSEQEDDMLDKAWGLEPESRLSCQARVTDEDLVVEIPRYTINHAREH

T1 sequence (P39405 whole entry): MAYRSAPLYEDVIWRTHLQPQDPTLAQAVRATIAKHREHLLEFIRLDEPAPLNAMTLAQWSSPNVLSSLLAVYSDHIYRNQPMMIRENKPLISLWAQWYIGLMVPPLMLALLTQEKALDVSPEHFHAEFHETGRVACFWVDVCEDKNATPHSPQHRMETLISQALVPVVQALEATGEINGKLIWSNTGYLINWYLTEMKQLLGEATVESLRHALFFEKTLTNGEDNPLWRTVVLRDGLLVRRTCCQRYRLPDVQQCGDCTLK

Compound: [S]1[Fe][S][Fe]1 [[2Fe-2S] cluster]
- UV-Vis absorption of purified protein (E. coli FhuF): [2Fe-2S] cluster assembly in the E. coli siderophore-reductase FhuF
- UV-Vis absorption of purified protein (E. coli ferredoxin (Fdx)): the E. coli ferredoxin, a [2Fe-2S] cluster-containing protein
